Experiments:
[1] = tested on: A. mellifera; assay: Acute contact (topical) insecticide bioassay of honeybees, with or without ABT; settings: honeybees pretreated with ABT (1-aminobenzotriazole)
Experimental: Acute contact insecticide assays were performed on female A. mellifera following standard methods OECD 2013 [30]. Bioassays of B. terrestris were based on the OECD guidelines developed for honeybees but with bees assayed in individual Nicot cages. Bees were starved of sucrose solution for up to 2 hr to encourage feeding during the experiment. […] Controls were fed a solution of sucrose containing a concentration of acetone matching that of the highest treatment concentration. After 4-6 hr the syringes were assessed to see if bees had consumed the insecticide-sucrose solution. Those that had not consumed all of the solution were excluded from the experiment. Mortality was assessed 48 hr after feeding and lethal concentrations (LC50 values) were calculated by probit analysis using Genstat version 16 (VSN International). For synergist bioassays, B. terrestris or A. mellifera workers were first treated with 20 μg of piperonyl butoxide or 1 μg of aminobenzotriazole applied to the dorsal thorax. Synergist bioassays included an additional control group treated only with the synergist. 1 hr after synergist application, bees were then treated with the appropriate insecticide dosage as above.

[2] = tested on: transgenic Drosophila expressing B. terrestris CYP9Q4; assay: Insecticide bioassay of transgenic Drosophila expressing CYP9Q4; assay type: in vivo, Drosophila melanogaster; settings: Act5C-GAL4 driven; ratio of LC50 values
Experimental: (§1) Fly lines were made homozygous for the transgene integrations. […] LC50 values were calculated as above.

[3] = tested on: transgenic Drosophila expressing honeybee CYP9Q3; assay: Insecticide bioassay of transgenic Drosophila expressing CYP9Q3; assay type: in vivo, Drosophila melanogaster; settings: Act5C-GAL4 driven; ratio of LC50 values
Experimental: as §1

Structure (SMILES): O=[N+]([O-])NC1=NCCN1Cc1ccc(Cl)nc1 [imidacloprid]
- fold more sensitive after pretreatment with ABT [1]: 2.7 fold
- resistance compared to control flies without the transgene [2]: no significant differences
- resistance compared to control flies without the transgene [3]: no significant differences in sensitivity

From publication PMC5887109, “Unravelling the Molecular Determinants of Bee Sensitivity to Neonicotinoid Insecticides” (Current Biology, 2018)
